{
  "source": "paper PMC4633953",
  "about": "“FR171456 is a specific inhibitor of mammalian NSDHL and yeast Erg26p” (Nature Communications, 2015)",
  "key": {"F. solani": {"tested_on": "F. solani", "test": "Combination with clinical antifungal agents (Loewe synergy, growth by OD530)", "assay_type": "cell-based", "details": "in presence of FR171456 6.67 and 20 μM", "quoted_text": "incubated for 24 h in increasing combined doses of FR171456 and Amphotericin B, and growth\nassessed by OD530. (a) Normalised growth rates plotted as % inhibition of growth. (b) Loewe excess\nheat map showing difference between predicted scores based upon the addition of each agent\nalone and the actual values detected plotted as difference in % of inhibition. (c) Loewe isobologram\n- a comparison of the doses of each compound needed to achieve 50% inhibition of proliferation."}, "Erg26p [1]": {"target": "T1, Erg26p (Saccharomyces cerevisiae, UniProt P53199)", "T1 sequence (P53199 1-349)": "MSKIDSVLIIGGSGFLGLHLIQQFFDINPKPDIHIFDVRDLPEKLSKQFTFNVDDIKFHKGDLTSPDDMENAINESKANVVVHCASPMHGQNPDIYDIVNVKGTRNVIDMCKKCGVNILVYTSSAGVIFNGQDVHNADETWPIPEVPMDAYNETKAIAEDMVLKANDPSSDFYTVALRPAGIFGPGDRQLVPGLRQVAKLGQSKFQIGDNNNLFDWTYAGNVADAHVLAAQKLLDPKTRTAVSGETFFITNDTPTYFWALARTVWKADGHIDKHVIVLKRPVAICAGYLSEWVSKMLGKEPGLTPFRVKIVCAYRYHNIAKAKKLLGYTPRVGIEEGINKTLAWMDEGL", "test": "In vitro microsomal Erg26p activity assay (GC-MS)", "quoted_text": "To test this hypothesis an in vitro microsomal Erg26p activity assay[30] was used. Erg26p activity was directly assessed in the presence of increasing concentrations of FR171456 (10 nM–0.1 mM) in the presence of 150 μM carboxysterol substrate (Fig. 1c) and the cofactor NAD^+ (0.5 mM) followed by GC-MS detection of the product 4α-methyl-cholest-8,24-dien-3-one.\nWild-type yeast (FL200) microsomes were prepared as follows. Yeast cells were disrupted by glass bead homogenization (0.45-mm diameter) in 100 mM phosphate buffer (pH 7.5) containing 1.5 mM reduced glutathione and 30 mM nicotinamide for 8 min at 0 °C[44]. The cell extract was obtained by centrifugation at 10,000 × g for 20 min. Microsomes were then isolated by centrifuging the cell extract supernatant at 100,000 × g for 90 min. The resulting microsomal pellet was resuspended in 100 mM phosphate buffer (pH 7.5) containing 3 mM reduced glutathione and 20% glycerol (v/v) using an Elvehjem–Potter homogenizer. Yeast microsomes (1.2 mg of protein) were incubated in the presence of 4α-carboxy-4β-methyl-cholest-8,24-dien-3β-ol (50–300 mM) and NAD^+ (0.5 mM) for 35–45 min at 30 °C. After addition of coprostanone (2–6 μg) as internal standard, the reactions were extracted as described previously[12]. The extract was analysed by TLC on silica gel and eluted twice with CH2Cl2. The fraction migrating between a standard of 4-desmethyl-sterone (RF= 0.50) and 4,4-dimethyl-sterone (RF=0.70) was eluted and analysed using a GC-MS spectrometer (Agilent 5973 N).\nIn the case of inhibition assays, microsomes were incubated for 35–45 min at 30 °C in the presence of 4α-carboxy-4β-methyl-cholest-8,24-dien-3β-ol (50–300 mM) and a range of inhibitor concentration (0.01–100 μM) from which a dose–response curve was obtained allowing the corresponding I50 values to be determined.\nThe GC-MS spectrometer (Agilent 5973 N) was equipped with an ‘on column' injector and a capillary column (30 × 0.25 mm) coated with DB5 (H2 flow rate of 2 ml min^−1). The temperature program included a 30 °C min^−1 increase from 60 °C to 240 °C, and followed by a 2 °C/min increase from 240 °C to 280 °C. The areas of the GC peaks of coprostanone (tR=1.000) and of the produced 4α-methyl-cholest-8,24-dien-3-one (tR=1.139), corrected from endogenous component of the same tR (1.139) determined in the blank (boiled microsomes), allowed the rate of transformation of 4α-carboxy-4β-methyl-cholest-8,24-dien-3β-ol to be measured. Under these conditions, the estimated limit of detection of the 3βHSD/D activity was 0.1 nmol h^−1 mg^−1."}, "[2]": {"tested_on": "S. cerevisiae (BY4743 strain)", "test": "Yeast growth inhibition dose response (OD600)", "assay_type": "cell-based", "details": "Saccharomyces cerevisiae, 14 h, BY4743, 14 h, 30 °C, YPD, 2% DMSO", "method": "Figure 2 FR171456 targets Erg26p in S. cerevisiae. (a) Structures of FR171456, and two related triterpenes (compound 1, compound 2). (b) Duplicate 12-point Dose response curves of wild-type diploid yeast with three compounds in a. Strain BY4743 was grown for 14 h at 30 °C in YPD media with 2% DMSO containing a dilution series of FR171456: black; Compound-1: light grey circles, and Compound-2: light grey squares. Y axis: OD600 absorbance indicating yeast growth, x axis: compound concentrations (log10 μM). (c) Haploinsufficiency and homozygous profiling (HIP resp. HOP) for FR171456 at 4 μM. Each mutant strain in the pool is represented by a circle (non-essential genes) or a square (essential genes). The, y axis represents strain sensitivity and x axis represents z-score (specificity). In (d), the z-scores of the HIP pool strains (y axis) plotted against increasing doses of FR171456 (x axis; μM). (e) Relative compound sensitivity profile of the erg26Δ/ERG26 strain across HIP experiments performed with 1,800 diverse small molecule yeast proliferation inhibitors. TEXT PRINTED IN THE PICTURE: (a) FR171456: MW 516.68; S.c. […] IC50 >200 μM | (a) Compound 2: MW 532.68; S.c. IC50 >200 μM"}, "Erg26p [3]": {"target": "T1, Erg26p", "details": "wild-type yeast Erg26p ref 32; cited from earlier work"}, "[4]": {"tested_on": "ergosterol pathway intermediates in C. albicans SC5314", "test": "Focused metabolomics: 13C-labelled ergosterol pathway intermediates in C. albicans", "assay_type": "cell-based", "details": "increasing doses", "method": "For ^13C- labelling studies, the wild type C. albicans strain SC5314 was obtained from ATCC (Manassas, VA) and was cultured at 30 °C in YPD broth (1% yeast extract, 2% peptone, 2% dextrose) or Synthetic Medium (3% glycerol, 0.1% glucose, 65 mM NH4Cl, 1.7 mM NaCl, 7 mM KH2PO4, 1 mM CaCl2, 0.5 mM MgSO4).\nApproximately 1.25 × 10^8 C. albicans cells from a saturated YPD culture were inoculated into 100 ml Synthetic Medium (SM) and grown at 30 °C to an OD of 1.0. Cells were washed once in modified SM (25 mM KPO4 pH 7.0, with glucose omitted) and suspended to 5 OD600 units per ml in modified SM.\nLabelling reactions were performed in 12-ml glass tubes with PTFE-lined caps (Corning) and containing 1 ml cell suspension (∼6 × 10^7 cells), 10 μl DMSO or 10 μl compound dissolved in DMSO, 12 μl 1M D-Glucose (U^-13C6 glucose), and 10 μl 1 M (1,2^-13C2) sodium acetate (Cambridge Isotope Laboratories, Inc). Before LC-MS analysis, dried lipid extracts were dissolved in 500 μl methanol, vortexed and sonicated for 10 min.\nSqualene, ergosterol, lanosterol and zymosterol were quantified using the tandem mass spectrometer API4000 triple quadrupole (AB Sciex) with atmospheric pressure chemical ionization (APCI), interfaced to an Agilent LC.\nCells (∼6 × 10^7) and compounds were preincubated 15 min at 30 °C (without shaking) before the addition of labelled substrates. Labelling was performed at 30 °C with shaking for 4 h. Reactions were stopped by adding 1 ml 30% KOH, 1 ml 100% ethanol, and 0.2 ml 2% pyrogallol. Samples were mixed and then heated at 80 °C for 30 min, then cooled to room temperature. Non-saponifiable lipids were extracted two times in petroleum ether, washed with water, dried under nitrogen gas and stored at −80 °C.\nFor compound calibration, 2 μM solutions in 0.1% formic acid were directly infused into the mass spectrometer. Ergosterol, lanosterol and zymosterol undergo dehydration and their molecular species are detected as [M+H-H2O]^+ while squalene is detected as [M+H]^+. Supplementary Table 4 lists the multiple reaction monitoring parameters of the sterols and squalene, as well as the ^13C incorporated metabolites. The mass spectrometer source parameters are the following: CUR=40, GS1=60, NC=4.5. TEM=450 CAD=4. A mobile phase of 0.2% formic acid in methanol and isocratic run at 0.4 ml min^−1 was employed to separate the metabolites on a Waters XBridge C18 3.5 μm 2.1 × 50 mm column. The run time was 4.5 min."}},
  "data": [
    {"compound": "C[C@@H]1[C@H](O)[C@@H](C)/C=C/C=C/C=C/C=C/C=C/C=C/C=C/[C@H](O[C@@H]2O[C@H](C)[C@@H](O)[C@H](N)[C@@H]2O)C[C@@H]2O[C@](O)(C[C@@H](O)C[C@@H](O)[C@H](O)CC[C@@H](O)C[C@@H](O)CC(=O)O[C@H]1C)C[C@H](O)[C@H]2C(=O)O", "note": "[Amphotericin B, reference compound]", "values": [
      {"measurement": "amount of Amphotericin B required for maximal inhibition", "setting": "F. solani", "result": "halved"}
    ]},
    {"compound": "C=C(CCC(C)C1CCC2C1(C)CC(O)C13CC14C(=O)CC(O)C(C)(C(=O)NCc1ccccc1)C4C(=O)CC23O)C(C)C", "note": "[Compound 1, (1R,2aR,3R,5aR,5bS,7aR,8S,9S,11aS,12aR)-N-benzyl-1,5b,9-trihydroxy-2a,8-dimethyl-3-((R)-6-methyl-5-methyleneheptan-2-yl)-7,11-dioxohexadecahydrocyclopenta[a]cyclopropa[e]phenanthrene-8-carboxamide]", "values": [
      {"measurement": "IC50", "setting": "Erg26p [1]", "result": "> 500", "unit": "µM"},
      {"measurement": "decrease of inhibition relative to FR171456", "setting": "Erg26p [1]", "result": "> 300", "unit": "fold"},
      {"measurement": "IC50", "setting": "[2]", "result": "> 200", "unit": "µM"}
    ]},
    {"compound": "C=C(CCC(C)C1CCC2C1(C)CC(O)C13CC14C(=O)CC(O)C(C)(C(=O)O)C4C(=O)CC23O)C(C)CO", "note": "[Compound 2, (1R,2aR,3R,5aR,5bS,7aR,8S,9S,11aS,12aR)-1,5b,9-trihydroxy-3-((2R)-7-hydroxy-6-methyl-5-methyleneheptan-2-yl)-2a,8-dimethyl-7,11-dioxohexadecahydrocyclopenta[a]cyclopropa[e]phenanthrene-8-carboxylic acid]", "values": [
      {"measurement": "IC50", "setting": "[2]", "result": "> 200", "unit": "µM"}
    ]},
    {"compound": "CC(C)=CCC[C@@H](C)[C@H]1CC[C@H]2C3=C(CC[C@]12C)[C@@]1(C)CC[C@H](O)[C@@](C)(C(=O)O)C1CC3", "note": "(stereo partly drawn) [carboxysterol substrate, 4α-carboxy-4β-methyl-cholest-8,24-dien-3β-ol]", "values": [
      {"measurement": "Km", "setting": "Erg26p [3]", "result": 550, "unit": "µM"}
    ]},
    {"compound": "OC(Cn1cncn1)(Cn1cncn1)c1ccc(F)cc1F", "note": "[fluconazole, reference compound]", "values": [
      {"measurement": "effect on 13C-labelled ergosterol", "setting": "[4]", "result": "decrease"},
      {"measurement": "effect on 13C-labelled lanosterol", "setting": "[4]", "result": "accumulation"},
      {"measurement": "effect on 13C-labelled zymosterol", "setting": "[4]", "result": "decrease"}
    ]}
  ]
}
